# Species on record: Rattus norvegicus
# Assay: DrugMatrix - Regimen: Daily Repeat
# Type: toxicity, organism-based, Sprague-Dawley
# Parameters: regimen Daily Repeat, gender Male, age 6-8 weeks
# Settings: in vivo, po, 0.3 mg/kg, route oral GAVAGE, dose level High, vehicle .5 % CMC; for ABSOLUTE BASOPHIL / ABSOLUTE EOSINOPHIL / ABSOLUTE LYMPHOCYTE / ABSOLUTE MONOCYTE / ABSOLUTE SEGMENTED NEUTROPHIL / BASOPHIL / EOSINOPHIL / ERYTHROCYTE COUNT / HEMATOCRIT / HEMOGLOBIN / LEUKOCYTE COUNT / LYMPHOCYTE / MEAN CORPUSCULAR HEMOGLOBIN / MEAN CORPUSCULAR HEMOGLOBIN CONCENTRATION / MEAN CORPUSCULAR VOLUME / MONOCYTE / NEUTROPHIL / NUCLEATED RED BLOOD CELLS / PLATELET COUNT: tissue Blood; for ALANINE AMINOTRANSFERASE / ALBUMIN / ALKALINE PHOSPHATASE / ASPARTATE AMINOTRANSFERASE / BLOOD UREA NITROGEN / CARBON DIOXIDE / CHLORIDE / CHOLESTEROL / CREATINE PHOSPHOKINASE / CREATININE / GLUCOSE / LIPASE / PHOSPHORUS / POTASSIUM / SODIUM / TOTAL BILIRUBIN / TOTAL PROTEIN / URIC ACID: tissue Plasma
structure (smiles),measurement,setting,value
COc1cc2c(c3oc(=O)c4c(c13)CCC4=O)[C@@H]1C=CO[C@@H]1O2 [AFLATOXIN],ABSOLUTE BASOPHIL,"72 h, time 3 day",0 CELLS/uL
same,ABSOLUTE EOSINOPHIL,"72 h, time 3 day",214.67 CELLS/uL
same,ABSOLUTE LYMPHOCYTE,"72 h, time 3 day",14943 CELLS/uL
same,ABSOLUTE MONOCYTE,"72 h, time 3 day",279 CELLS/uL
same,ABSOLUTE SEGMENTED NEUTROPHIL,"72 h, time 3 day",1230 CELLS/uL
same,BASOPHIL,"72 h, time 3 day",0%
same,EOSINOPHIL,"72 h, time 3 day",1.33%
same,ERYTHROCYTE COUNT,"72 h, time 3 day",5.62 x10E6/uL
same,HEMATOCRIT,"72 h, time 3 day",35.63%
same,HEMOGLOBIN,"72 h, time 3 day",13.67 G/DL
same,LEUKOCYTE COUNT,"72 h, time 3 day",16.67 x10E3/uL
same,LYMPHOCYTE,"72 h, time 3 day",89.67%
same,MEAN CORPUSCULAR HEMOGLOBIN,"72 h, time 3 day",24.33 pg
same,MEAN CORPUSCULAR HEMOGLOBIN CONCENTRATION,"72 h, time 3 day",38.33 G/DL
same,MEAN CORPUSCULAR VOLUME,"72 h, time 3 day",63.4 fL
same,MONOCYTE,"72 h, time 3 day",1.67%
same,NEUTROPHIL,"72 h, time 3 day",7.33%
same,NUCLEATED RED BLOOD CELLS,"72 h, time 3 day",0.33 /100WBC
same,PLATELET COUNT,"72 h, time 3 day",1408.33 x10E3/uL
same,ALANINE AMINOTRANSFERASE,"72 h, time 3 day",50 u/L
same,ALBUMIN,"72 h, time 3 day",4.07 G/DL
same,ALKALINE PHOSPHATASE,"72 h, time 3 day",424 u/L
same,ASPARTATE AMINOTRANSFERASE,"72 h, time 3 day",109.33 u/L
same,BLOOD UREA NITROGEN,"72 h, time 3 day",15.67 mg/dL
same,CARBON DIOXIDE,"72 h, time 3 day",24.33 mmol/L
same,CHLORIDE,"72 h, time 3 day",104 MEQ/L
same,CHOLESTEROL,"72 h, time 3 day",59.67 mg/dL
same,CREATINE PHOSPHOKINASE,"72 h, time 3 day",568.33 u/L
same,CREATININE,"72 h, time 3 day",0.14 mg/dL
same,GLUCOSE,"72 h, time 3 day",152.67 mg/dL
same,LIPASE,"72 h, time 3 day",8.67 u/L
same,PHOSPHORUS,"72 h, time 3 day",13 mg/dL
same,POTASSIUM,"72 h, time 3 day",6.95 MEQ/L
same,SODIUM,"72 h, time 3 day",144.7 MEQ/L
same,TOTAL BILIRUBIN,"72 h, time 3 day",0.23 mg/dL
same,TOTAL PROTEIN,"72 h, time 3 day",5.27 G/DL
same,URIC ACID,"72 h, time 3 day",1.73 mg/dL
same,ABSOLUTE BASOPHIL,"120 h, time 5 day",0 CELLS/uL
same,ABSOLUTE EOSINOPHIL,"120 h, time 5 day",83.33 CELLS/uL
same,ABSOLUTE LYMPHOCYTE,"120 h, time 5 day",13811.33 CELLS/uL
same,ABSOLUTE MONOCYTE,"120 h, time 5 day",454 CELLS/uL
same,ABSOLUTE SEGMENTED NEUTROPHIL,"120 h, time 5 day",784.67 CELLS/uL
same,BASOPHIL,"120 h, time 5 day",0%
same,EOSINOPHIL,"120 h, time 5 day",0.67%
same,ERYTHROCYTE COUNT,"120 h, time 5 day",5.95 x10E6/uL
same,HEMATOCRIT,"120 h, time 5 day",36.77%
same,HEMOGLOBIN,"120 h, time 5 day",14.07 G/DL
same,LEUKOCYTE COUNT,"120 h, time 5 day",15.13 x10E3/uL
same,LYMPHOCYTE,"120 h, time 5 day",91%
same,MEAN CORPUSCULAR HEMOGLOBIN,"120 h, time 5 day",23.63 pg
same,MEAN CORPUSCULAR HEMOGLOBIN CONCENTRATION,"120 h, time 5 day",38.23 G/DL
same,MEAN CORPUSCULAR VOLUME,"120 h, time 5 day",61.8 fL
same,MONOCYTE,"120 h, time 5 day",3%
same,NEUTROPHIL,"120 h, time 5 day",5.33%
same,NUCLEATED RED BLOOD CELLS,"120 h, time 5 day",0 /100WBC
same,PLATELET COUNT,"120 h, time 5 day",1425.67 x10E3/uL
same,ALANINE AMINOTRANSFERASE,"120 h, time 5 day",64.67 u/L
same,ALBUMIN,"120 h, time 5 day",4.1 G/DL
same,ALKALINE PHOSPHATASE,"120 h, time 5 day",290.33 u/L
same,ASPARTATE AMINOTRANSFERASE,"120 h, time 5 day",102.33 u/L
same,BLOOD UREA NITROGEN,"120 h, time 5 day",17.33 mg/dL
same,CARBON DIOXIDE,"120 h, time 5 day",27 mmol/L
same,CHLORIDE,"120 h, time 5 day",105.5 MEQ/L
same,CHOLESTEROL,"120 h, time 5 day",48 mg/dL
same,CREATINE PHOSPHOKINASE,"120 h, time 5 day",345.67 u/L
same,CREATININE,"120 h, time 5 day",0.19 mg/dL
same,GLUCOSE,"120 h, time 5 day",158.67 mg/dL
same,LIPASE,"120 h, time 5 day",9 u/L
same,PHOSPHORUS,"120 h, time 5 day",12.27 mg/dL
same,POTASSIUM,"120 h, time 5 day",5.92 MEQ/L
same,SODIUM,"120 h, time 5 day",147.5 MEQ/L
same,TOTAL BILIRUBIN,"120 h, time 5 day",0.13 mg/dL
same,TOTAL PROTEIN,"120 h, time 5 day",5.53 G/DL
same,URIC ACID,"120 h, time 5 day",1.93 mg/dL

# Source: ChEMBL document CHEMBL3885881, “DrugMatrix”
